Drawing on patent US20250059231A1, “Protease inhibitors” (priority 2021, published 2025), this text covers inhibition and IC50 for 20 compounds.

Molecules are shown by their SMILES. Read-outs that look alike come from different tables or passages of the source. Where a SMILES comes first, the peptide text is derived from it. [ ]: non-standard residue; d: D form. The star is where a group is joined. Palmitoyl = CCCCCCCCCCCCCCCC(=O)*; Phg = N[C@H](C(=O)O)c1ccccc1; Pip = O=C(O)[C@@H]1CCCCN1

In one assay the target is T1, DENV protease (Dengue virus type 2, UniProt P29990).
T1 construct: The virus-encoded dengue protease comprises the amino-terminal 180 amino acids of NS3 (NS3pro) of the polyprotein
As to the kind of experiment: biochemical. To be noted: read-out: inhibition of DENV. The method, then: (§1) Dilutions were made starting from 10 mM stock solutions in DMSO and final concentrations were measured in triplicates. The inhibitors were preincubated for 15 min with DENV protease (100 nM) in the assay buffer (50 mM Tris-HCl pH 9.0, ethylene glycol (10% v/v), and 0.0016% Brij 58). The enzymatic reaction was initiated by the addition of the FRET substrate (final concentration 50 μM) to obtain a final assay volume of 100 μL per well. The enzymatic activity was monitored for 15 min and determined as a slope of relative fluorescence units per second (RFU/s) for each concentration. The mean of the triplicates were plotted against the corresponding concentration in CDDVault to determine the IC50-values. Analogous procedures were used to determine the inhibitory potency on WNV (Kühl et al., J. Med. Chem. 2020, 63 (15): 8179-8197) and ZIKA protease (Nitsche et al., ACS Med. Chem. Lett. 2019 Feb. 14; 10 (2): 168-174). For selectivity screening of active candidates, similar biochemical assays with human serine proteases trypsin (Weigel et al., J. Med. Chem. 2015, 58 (19), 7719-7733.) and/or thrombin (Nitsche et al., J. Med. Chem. 2013, 56 (21), 8389-8403) were used.

In assay [1] the target is T2, WNV protease (West Nile virus, UniProt P06935).
T2 construct: a trypsin-like serine protease domain in the N-terminal region of the flaviviral NS3 proteins
As to the kind of experiment: WNV protease assay (analogous procedure). The settings on record: read-out: IC50 for WNNV. It counts as biochemical.

Assay [2] deals with T2, WNV protease. As to the kind of experiment: WNV protease assay (analogous procedure). It counts as biochemical. The protocol: as §1, with “By catalytic activity of the protease, the cleaved substrate results in increased fluorescence that can be monitored using a BMG Labtech Fluostar OPTIMA Microtiter fluorescence plate reader (excitation wavelength of 320 nm and a monitored emission wavelength of 405 nm). Dilutions” for “Dilutions”

Another assay deals with human Thrombin (Homo sapiens, UniProt P00734). As to the kind of experiment: Selectivity screening, human serine protease thrombin. In kind it is biochemical. To be noted: read-out: inhibition of human Thrombin. The protocol:
as §1, with “By catalytic activity of the protease, the cleaved substrate results in increased fluorescence that can be monitored using a BMG Labtech Fluostar OPTIMA Microtiter fluorescence plate reader (excitation wavelength of 320 nm and a monitored emission wavelength of 405 nm). Dilutions” for “Dilutions”

The target in the next assay is T3, ZIKA protease (Zika virus, UniProt Q32ZE1).
T3 construct: a trypsin-like serine protease domain in the N-terminal region of the flaviviral NS3 proteins
As to the kind of experiment: biochemical. The settings on record: for inhibition at 1 µM / inhibition at 50 µM: read-out: inhibition of ZIKV. The method, then: as §1, with “By catalytic activity of the protease, the cleaved substrate results in increased fluorescence that can be monitored using a BMG Labtech Fluostar OPTIMA Microtiter fluorescence plate reader (excitation wavelength of 320 nm and a monitored emission wavelength of 405 nm). Dilutions” for “Dilutions”

The next assay has as its target human Trypsin (Homo sapiens, UniProt P07477). As to the kind of experiment: Selectivity screening, human serine protease trypsin. In kind it is biochemical. The settings on record: read-out: inhibition of human Trypsin. The method, then:
as §1, with “By catalytic activity of the protease, the cleaved substrate results in increased fluorescence that can be monitored using a BMG Labtech Fluostar OPTIMA Microtiter fluorescence plate reader (excitation wavelength of 320 nm and a monitored emission wavelength of 405 nm). Dilutions” for “Dilutions”

T1 sequence (P29990 1398-1437): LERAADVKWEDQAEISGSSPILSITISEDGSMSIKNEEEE
T1 sequence (P29990 1476-1653): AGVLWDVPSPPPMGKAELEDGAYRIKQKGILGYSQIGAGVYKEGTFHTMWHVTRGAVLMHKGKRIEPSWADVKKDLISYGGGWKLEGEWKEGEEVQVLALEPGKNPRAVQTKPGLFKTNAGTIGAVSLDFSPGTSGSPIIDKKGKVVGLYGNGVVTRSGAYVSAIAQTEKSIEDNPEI
T2 sequence (P06935 1424-1463): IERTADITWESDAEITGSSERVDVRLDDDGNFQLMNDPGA
T2 sequence (P06935 1502-1679): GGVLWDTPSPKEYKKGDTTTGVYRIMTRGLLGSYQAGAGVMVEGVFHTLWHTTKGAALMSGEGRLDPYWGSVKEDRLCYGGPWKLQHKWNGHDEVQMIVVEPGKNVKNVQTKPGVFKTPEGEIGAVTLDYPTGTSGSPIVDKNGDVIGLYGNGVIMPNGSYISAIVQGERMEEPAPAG
T3 sequence (Q32ZE1 1499-1676): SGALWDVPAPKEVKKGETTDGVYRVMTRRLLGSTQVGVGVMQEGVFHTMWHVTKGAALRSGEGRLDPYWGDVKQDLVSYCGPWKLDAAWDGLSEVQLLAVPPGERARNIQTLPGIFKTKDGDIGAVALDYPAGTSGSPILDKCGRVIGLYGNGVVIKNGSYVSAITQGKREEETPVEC
T3 sequence (Q32ZE1 1421-1460): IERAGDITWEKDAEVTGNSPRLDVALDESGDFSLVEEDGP

What is called inhibition is the percentage by which the read-out fell short of the control. The IC50 is the midpoint of a concentration-inhibition curve. On to `CCCCCCCCCCCCCCCC(=O)N[C@@H](CCCCN)C(=O)N1CCC[C@H]1C(=O)N[C@@H](C)C(=O)N[C@@H](CCCCN)C(N)=O` [compound 156] (Palmitoyl-KPAK-NH2), for which the inhibition at 50 µM on DENV protease was ≥ 25%. The 50% inhibitory concentration (IC50) at WNV protease [1] was ≤ 40 µM.

`CCCCCCCCCCCCCCCC(=O)N[C@@H](CCCCN)C(=O)N[C@@H](C)C(=O)N[C@@H](CCCCN)C(=O)N(C)OC` [compound 185]: the inhibition at 50 µM on WNV protease [2] and on DENV protease was ≥ 25% in each case.

On to `CCCCCCCCCCCCCCCC(=O)N[C@@H](CCCCN)C(=O)N[C@@H](C)C(=O)N[C@H](C=O)CCCCN` [compound 186] (Palmitoyl-Lys-Ala-Lys-aldehyde), for which the inhibition at 5 µM on human Thrombin (at 5 μM) was < 5%. The inhibition at 1 µM at WNV protease [2] (at 1 μM, read-out: inhibition of WNNV) is ≥ 10%. Further, the inhibition at 50 µM against WNV protease [2] and at DENV protease was ≥ 25% in each case. The concentration for half-maximal inhibition (IC50) at WNV protease [1] is ≤ 40 µM.

On to `CCCCCCCCCCCCCCCC(=O)N[C@@H](CCCCN)C(=O)N[C@@H](C)C(=O)N[C@@H](C)C(=O)N[C@@H](CCCCN)C(O)O` [compound 183], for which the inhibition at 50 µM at WNV protease [2] and on DENV protease was ≥ 25% each time. In addition, the IC50 at WNV protease [1] was ≤ 40 µM.

As to `CCCCCCCCCCCCCCCC(=O)N[C@@H](CCCCN)C(=O)N[C@@H](C)C(=O)N[C@@H](CCCCN)C(=O)N(C)C` [compound 184] (Palmitoyl-Lys-Ala-Lys-NMe2), the inhibition at 50 µM against WNV protease [2] and at DENV protease was ≥ 25% throughout.

With `CCCCCCCCCCCCCCCC(=O)N[C@@H](CCCCN)C(=O)N[C@@H](C)C(=O)N[C@@H](C)C(=O)N[C@H](C=O)CCCCN` [compound 180] (Palmitoyl-KAAK-aldehyde), the inhibition at 5 µM at human Thrombin (at 5 μM) was < 5%. For the same compound, the inhibition at 50 µM at WNV protease [2] and at DENV protease was ≥ 25% in each case. Further, at WNV protease [1], the IC50 is ≤ 40 µM.

In the case of `CC(=O)N[C@@H](C)C(=O)N[C@@H](CCCNC(=N)N)C(=O)N[C@@H](CCC(N)=O)C(=O)N[C@@H](CCCCN)B(O)O` [compound 48], the half-maximal inhibitory concentration (IC50) was ≤ 25 µM against ZIKA protease and ≤ 40 µM at WNV protease [1]. Further, the values for the inhibition at 1 µM on ZIKA protease and on DENV protease were ≥ 10% and ≥ 20%, respectively. In addition, the inhibition at 50 µM was ≥ 65% at ZIKA protease, ≥ 25% on WNV protease [2] and ≥ 25% at DENV protease.

With `CCCCCCCCCCCCCCCC(=O)N[C@@H](CCCCN)C(=O)N[C@@H](C)C(=O)N[C@@H](CCCCN)C(=O)C(N)=O` [compound 176], the half-maximal inhibitory concentration (IC50) is ≤ 25 µM on ZIKA protease and ≤ 40 µM at WNV protease [1]. Also, the inhibition at 50 µM is ≥ 65% on ZIKA protease, ≥ 25% against WNV protease [2] and ≥ 25% at DENV protease. Besides, the inhibition at 5 µM at human Thrombin (at 5 μM) is < 5%.

With `CCCCCCCCCCCCCCCC(=O)N[C@@H](CCCCN)C(=O)N[C@@H](C)C(=O)N[C@@H](Cc1cnc[nH]1)C(N)=O` [compound 167] (Palmitoyl-Lys-Ala-His-NH2), the IC50 at ZIKA protease was ≤ 25 µM; at WNV protease [1], ≤ 40 µM. The inhibition at 1 µM was ≥ 10% on ZIKA protease and ≥ 20% at DENV protease. In addition, the inhibition at 50 µM on ZIKA protease was ≥ 65%; against WNV protease [2], ≥ 25%. Also, the inhibition at 5 µM at human Thrombin (at 5 μM) is < 5%.

As to `CCCCCCCCCCCCCCCC(=O)N[C@@H](CCCCN)C(=O)N[C@@H](C)C(=O)N[C@@H](CCCCN)B(O)O` [compound 182], the inhibition at 50 µM against WNV protease [2] and at DENV protease was ≥ 25% each time. Also, on WNV protease [1], the IC50 was ≤ 40 µM.

As for `CCCCCCCCCCCCCCCC(=O)N[C@@H](CCCCN)C(=O)N[C@@H](C)C(=O)N[C@@H](Cc1ccccc1)C(N)=O` [compound 192] (Palmitoyl-Lys-Ala-Phe-NH2), the inhibition at 50 µM on WNV protease [2] and on DENV protease was ≥ 25% throughout.

Turning to `CCCCCCCCCCCCCCCC(=O)N[C@@H](CCCNC(=N)N)C(=O)N[C@@H](CCC(N)=O)C(=O)N[C@@H](CCCCN)B(O)O` [compound 41], at DENV protease, the inhibition at 1 µM was ≥ 20% and the inhibition at 50 µM was ≥ 25%. The IC50 at WNV protease [1] is ≤ 40 µM.

On to `CCCCCCCCCCCCCCCC(=O)N[C@@H](CCCCN)C(=O)N1CCC[C@H]1C(=O)N[C@H](C(=O)N[C@@H](CCCCN)C(N)=O)c1ccccc1` [compound 13] (Palmitoyl-KP[Phg]K-NH2), for which the results for the inhibition at 5 µM at human Thrombin (at 5 μM) and at human Trypsin (at 5 μM) were < 5% and < 10%, respectively. Moreover, the inhibition at 25 µM at human Trypsin (at 25 μM) was < 20%. Further, the inhibition at 50 µM at WNV protease [2] and at DENV protease was ≥ 25% throughout. Further, the 50% inhibitory concentration (IC50) on WNV protease [1] is ≤ 40 µM.

Regarding `CCCCCCCCCCCCCCCC(=O)N[C@@H](C)C(=O)N[C@@H](CCCNC(=N)N)C(=O)N[C@@H](CCC(N)=O)C(=O)N[C@@H](CCCCN)B(O)O` [compound 39], on ZIKA protease, the IC50 was ≤ 25 µM, the inhibition at 1 µM was ≥ 10% and the inhibition at 50 µM was ≥ 65%. Besides, at DENV protease, the inhibition at 1 µM is ≥ 20% and the inhibition at 50 µM was ≥ 25%. Also, on WNV protease [1], the IC50 is ≤ 40 µM.

Take `CCCCCCCCCCCCCCCC(=O)N[C@@H](CCCCN)C(=O)N[C@@H](C)C(=O)N[C@@H](C)C(=O)N[C@@H](Cc1ccccc1)C(N)=O` [compound 17] (Palmitoyl-KAAF-NH2): the inhibition at 5 µM at human Thrombin (at 5 μM) was < 5%; on human Trypsin (at 5 μM) it was < 10%. The inhibition at 25 µM on human Trypsin (at 25 μM) is < 20%. Moreover, the inhibition at 50 µM against WNV protease [2] and on DENV protease was ≥ 25% throughout. Besides, the 50% inhibitory concentration (IC50) on WNV protease [1] was ≤ 40 µM.

In the case of `CCCCCCCCCCCCCCCC(=O)N[C@@H](Cc1c[nH]c2ccccc12)C(=O)N[C@@H](C)C(=O)N[C@@H](C)C(=O)N[C@@H](Cc1c[nH]c2ccccc12)C(N)=O` [compound 191] (Palmitoyl-WAAW-NH2), the inhibition at 50 µM against WNV protease [2] is ≥ 25%.

For the compound `CCCCCCCCCCCCCCCC(=O)N[C@@H](CCCCN)C(=O)N1CCCC[C@H]1C(=O)N[C@H](C(=O)N[C@@H](CCCCN)C(N)=O)c1ccccc1` [compound 16] (Palmitoyl-K[Pip][Phg]K-NH2), the inhibition at 5 µM was < 5% at human Thrombin (at 5 μM) and < 10% at human Trypsin (at 5 μM). Moreover, the inhibition at 25 µM on human Trypsin (at 25 μM) was < 20%. Further, the inhibition at 50 µM against WNV protease [2] and at DENV protease was ≥ 25% in each case. On WNV protease [1], the IC50 was ≤ 40 µM.

Consider `CCCCCCCCCCCCCCCC(=O)N[C@H](CCCCN)C(=O)N[C@@H](C)C(=O)N[C@@H](Cc1ccccc1)C(N)=O` [compound 190] (Palmitoyl-[dK]-Ala-Phe-NH2), for which the values for the inhibition at 5 µM on human Thrombin (at 5 μM) and at human Trypsin (at 5 μM) were < 5% and < 10%, respectively. In addition, the inhibition at 25 µM at human Trypsin (at 25 μM) is < 20%. The inhibition at 50 µM at WNV protease [2] and at DENV protease was ≥ 25% each time. The IC50 on WNV protease [1] is ≤ 40 µM.

For `CCCCCCCCCCCCCCCC(=O)N[C@@H](CCCCN)C(=O)N[C@@H](C)C(=O)N[C@@H](CCCCN)C(=O)c1ccccc1` [compound 174], the results for the inhibition at 5 µM on human Thrombin and on human Trypsin were < 5% and < 10%, respectively. The inhibition at 25 µM at human Trypsin was < 20%. Also, the inhibition at 50 µM at WNV protease [2] and on DENV protease was ≥ 25% each time. Besides, the half-maximal inhibitory concentration (IC50) on WNV protease [1] is ≤ 40 µM.

Take `CCCCCCCCCCCCCCCC(=O)N[C@H](CCCCN)C(=O)N[C@@H](C)C(=O)N[C@@H](C)C(=O)N[C@@H](Cc1ccccc1)C(N)=O` [compound 193] (Palmitoyl-[dK]AAF-NH2): the inhibition at 50 µM against WNV protease [2] and on DENV protease was ≥ 25% throughout. Also, the IC50 at WNV protease [1] is ≤ 40 µM.
